According to the kinase profiling compilation of Christmann-Franck et al. (2016):

Assays:
Test in all cases: KINOMEscan competition binding
Conditions in all cases: compound 10.0 µM
CAMK2B (human) = CAMK2B (human) (UniProt Q13554)
CAMK2D (human) = CAMK2D (human) (UniProt Q13557)
CAMK2G (human) = CAMK2G (human) (UniProt Q13555)
CAMK4 (human) = CAMK4 (human) (UniProt Q16566)
CAMKK1 (human) = CAMKK1 (human) (UniProt Q8N5S9)
CDC42BPA (human) = CDC42BPA (human) (UniProt Q5VT25)
CDKL1 (human) = CDKL1 (human) (UniProt Q00532)
CHUK (human) = CHUK (human) (UniProt O15111)
DCLK2 (human) = DCLK2 (human) (UniProt Q8N568)
[1] = test system: FLT3 (human), P36888 [R834Q]
HCK (human) = HCK (human) (UniProt P08631)
IGF1R (human) = IGF1R (human) (UniProt P08069)
IKBKE (human) = IKBKE (human) (UniProt Q14164)
LIMK2 (human) = LIMK2 (human) (UniProt P53671)
MAP2K7 (human) = MAP2K7 (human) (UniProt O14733)
MAP3K2 (human) = MAP3K2 (human) (UniProt Q9Y2U5)
MAP3K7 (human) = MAP3K7 (human) (UniProt O43318)
MAP4K3 (human) = MAP4K3 (human) (UniProt Q8IVH8)
NEK5 (human) = NEK5 (human) (UniProt Q6P3R8)
PDGFRA (human) = PDGFRA (human) (UniProt P16234)
PKN1 (human) = PKN1 (human) (UniProt Q16512)
PKN3 (M.tuberculosis) = PKN3 (M.tuberculosis) (UniProt Q6P5Z2)
PLK2 (human) = PLK2 (human) (UniProt Q9NYY3)
PRKAA2 (human) = PRKAA2 (human) (UniProt P54646)
PRKCQ (human) = PRKCQ (human) (UniProt Q04759)
RPS6KA5 KD1 (human) = RPS6KA5 KD1 (human) (UniProt O75582)
SIK1 (human) = SIK1 (human) (UniProt P57059)
SRMS (human) = SRMS (human) (UniProt Q9H3Y6)
STK17A (human) = STK17A (human) (UniProt Q9UEE5)
STK24 (human) = STK24 (human) (UniProt Q9Y6E0)
STK32C (human) = STK32C (human) (UniProt Q86UX6)
TEC (human) = TEC (human) (UniProt P42680)
TLK2 (human) = TLK2 (human) (UniProt Q86UE8)
TNIK (human) = TNIK (human) (UniProt Q9UKE5)
TNNI3K (human) = TNNI3K (human) (UniProt Q59H18)
CAMK1D (human) = CAMK1D (human) (UniProt Q8IU85)
CASK (human) = CASK (human) (UniProt O14936)
CSNK1G1 (human) = CSNK1G1 (human) (UniProt Q9HCP0)
[2] = test system: EGFR (human), P00533 [L858R]
[3] = test system: EGFR (human), P00533 [T790M]
PRKG2 (human) = PRKG2 (human) (UniProt Q13237)

Chain of SIK1 (human) (P57059 whole entry, looked up): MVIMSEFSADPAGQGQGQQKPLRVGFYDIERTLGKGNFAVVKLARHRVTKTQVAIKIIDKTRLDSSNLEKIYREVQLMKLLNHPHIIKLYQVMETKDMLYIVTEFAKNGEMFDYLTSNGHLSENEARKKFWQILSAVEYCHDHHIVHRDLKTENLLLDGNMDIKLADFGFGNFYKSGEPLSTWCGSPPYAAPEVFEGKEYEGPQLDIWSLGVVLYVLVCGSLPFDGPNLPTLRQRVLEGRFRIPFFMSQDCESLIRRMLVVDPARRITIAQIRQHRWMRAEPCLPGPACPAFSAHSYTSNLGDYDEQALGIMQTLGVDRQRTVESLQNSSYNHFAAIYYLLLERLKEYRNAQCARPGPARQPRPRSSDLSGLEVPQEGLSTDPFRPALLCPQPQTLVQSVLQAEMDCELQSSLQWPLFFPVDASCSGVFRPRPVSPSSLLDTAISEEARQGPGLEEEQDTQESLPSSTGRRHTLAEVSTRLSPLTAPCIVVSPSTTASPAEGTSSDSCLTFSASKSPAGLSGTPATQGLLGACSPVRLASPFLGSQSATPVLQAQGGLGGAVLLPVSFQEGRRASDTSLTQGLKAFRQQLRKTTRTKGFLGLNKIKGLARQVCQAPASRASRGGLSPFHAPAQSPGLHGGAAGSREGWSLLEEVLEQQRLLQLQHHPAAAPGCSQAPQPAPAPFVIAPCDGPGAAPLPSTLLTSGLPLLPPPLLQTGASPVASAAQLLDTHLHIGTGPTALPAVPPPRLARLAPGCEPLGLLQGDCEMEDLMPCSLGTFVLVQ
Chain of MAP2K7 (human) (O14733 whole entry, looked up): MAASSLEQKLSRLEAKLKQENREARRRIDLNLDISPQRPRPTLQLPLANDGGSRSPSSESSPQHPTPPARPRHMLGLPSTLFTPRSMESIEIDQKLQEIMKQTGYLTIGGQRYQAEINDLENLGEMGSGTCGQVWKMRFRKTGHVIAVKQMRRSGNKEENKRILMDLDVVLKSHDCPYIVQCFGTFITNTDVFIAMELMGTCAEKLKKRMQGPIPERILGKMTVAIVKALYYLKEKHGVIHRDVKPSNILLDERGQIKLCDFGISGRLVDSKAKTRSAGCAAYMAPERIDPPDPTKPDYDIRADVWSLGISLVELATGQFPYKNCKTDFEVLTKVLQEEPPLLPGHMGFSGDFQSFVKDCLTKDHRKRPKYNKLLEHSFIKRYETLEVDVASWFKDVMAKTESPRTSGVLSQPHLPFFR
Chain of TNNI3K (human) (Q59H18 whole entry, looked up): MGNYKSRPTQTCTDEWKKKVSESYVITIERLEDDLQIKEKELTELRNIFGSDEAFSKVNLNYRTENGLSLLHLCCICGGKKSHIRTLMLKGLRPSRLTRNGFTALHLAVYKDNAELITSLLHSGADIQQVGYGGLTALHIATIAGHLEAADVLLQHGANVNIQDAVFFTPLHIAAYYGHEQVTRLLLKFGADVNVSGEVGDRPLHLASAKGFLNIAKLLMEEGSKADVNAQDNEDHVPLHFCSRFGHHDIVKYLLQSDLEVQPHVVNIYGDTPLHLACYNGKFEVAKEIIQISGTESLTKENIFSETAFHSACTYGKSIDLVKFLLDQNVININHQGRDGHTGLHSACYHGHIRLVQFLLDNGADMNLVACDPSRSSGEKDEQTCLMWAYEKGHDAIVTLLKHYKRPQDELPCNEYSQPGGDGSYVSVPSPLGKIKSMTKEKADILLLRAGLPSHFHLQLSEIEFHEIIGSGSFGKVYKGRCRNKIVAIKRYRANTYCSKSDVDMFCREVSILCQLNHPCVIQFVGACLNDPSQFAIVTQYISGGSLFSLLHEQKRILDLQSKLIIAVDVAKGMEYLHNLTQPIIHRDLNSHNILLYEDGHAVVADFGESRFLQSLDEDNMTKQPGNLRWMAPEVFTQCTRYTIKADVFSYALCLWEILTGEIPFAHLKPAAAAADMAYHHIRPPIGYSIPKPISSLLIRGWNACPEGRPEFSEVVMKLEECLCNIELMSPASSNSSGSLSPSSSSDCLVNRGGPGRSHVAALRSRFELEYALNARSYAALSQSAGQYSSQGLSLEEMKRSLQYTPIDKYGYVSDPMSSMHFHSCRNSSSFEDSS
Chain of IGF1R (human) (P08069 whole entry, looked up): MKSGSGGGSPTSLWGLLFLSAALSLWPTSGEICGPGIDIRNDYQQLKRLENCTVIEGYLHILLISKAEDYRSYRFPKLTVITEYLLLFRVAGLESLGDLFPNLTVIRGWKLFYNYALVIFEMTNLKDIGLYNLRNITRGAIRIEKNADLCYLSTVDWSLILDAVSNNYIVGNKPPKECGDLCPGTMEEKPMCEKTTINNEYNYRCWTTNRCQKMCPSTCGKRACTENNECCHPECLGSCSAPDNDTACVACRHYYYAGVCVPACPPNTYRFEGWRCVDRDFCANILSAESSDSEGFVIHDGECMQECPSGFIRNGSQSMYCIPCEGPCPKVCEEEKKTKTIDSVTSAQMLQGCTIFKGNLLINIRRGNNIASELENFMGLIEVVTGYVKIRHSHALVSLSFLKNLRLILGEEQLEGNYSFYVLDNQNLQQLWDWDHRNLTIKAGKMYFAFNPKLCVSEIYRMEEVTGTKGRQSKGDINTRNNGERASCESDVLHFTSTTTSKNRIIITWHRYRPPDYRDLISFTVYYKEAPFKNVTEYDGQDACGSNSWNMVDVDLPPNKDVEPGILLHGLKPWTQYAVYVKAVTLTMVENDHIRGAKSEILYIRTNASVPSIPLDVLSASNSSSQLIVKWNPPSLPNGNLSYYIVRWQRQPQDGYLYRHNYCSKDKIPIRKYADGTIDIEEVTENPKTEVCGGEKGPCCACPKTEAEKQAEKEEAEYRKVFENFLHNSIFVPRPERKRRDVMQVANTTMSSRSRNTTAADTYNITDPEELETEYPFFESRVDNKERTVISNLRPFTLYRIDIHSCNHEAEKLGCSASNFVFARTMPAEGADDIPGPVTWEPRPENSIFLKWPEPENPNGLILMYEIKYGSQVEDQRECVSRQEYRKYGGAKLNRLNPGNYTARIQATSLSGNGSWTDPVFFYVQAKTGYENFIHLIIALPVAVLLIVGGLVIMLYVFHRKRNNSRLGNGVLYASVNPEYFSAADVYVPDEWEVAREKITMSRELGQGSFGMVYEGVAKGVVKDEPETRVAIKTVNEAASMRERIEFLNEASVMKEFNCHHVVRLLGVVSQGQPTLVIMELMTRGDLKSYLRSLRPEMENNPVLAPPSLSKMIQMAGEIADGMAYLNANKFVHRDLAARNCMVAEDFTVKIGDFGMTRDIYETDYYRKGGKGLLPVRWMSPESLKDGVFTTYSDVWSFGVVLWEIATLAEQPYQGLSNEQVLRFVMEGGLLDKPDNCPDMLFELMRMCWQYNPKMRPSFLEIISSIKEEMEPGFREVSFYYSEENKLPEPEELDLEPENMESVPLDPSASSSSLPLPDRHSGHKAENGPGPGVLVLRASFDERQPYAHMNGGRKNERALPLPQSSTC
Chain of CDKL1 (human) (Q00532 whole entry, looked up): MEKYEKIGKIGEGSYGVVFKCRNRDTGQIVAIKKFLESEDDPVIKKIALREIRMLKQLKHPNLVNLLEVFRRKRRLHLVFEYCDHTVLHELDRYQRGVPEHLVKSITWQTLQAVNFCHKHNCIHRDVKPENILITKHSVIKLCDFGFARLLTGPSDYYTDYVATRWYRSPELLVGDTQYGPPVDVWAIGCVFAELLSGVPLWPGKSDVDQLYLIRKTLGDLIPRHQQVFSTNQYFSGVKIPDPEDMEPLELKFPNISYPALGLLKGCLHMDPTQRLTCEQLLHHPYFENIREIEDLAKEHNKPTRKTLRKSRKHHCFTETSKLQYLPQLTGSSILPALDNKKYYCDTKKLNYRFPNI
Chain of DCLK2 (human) (Q8N568 whole entry, looked up): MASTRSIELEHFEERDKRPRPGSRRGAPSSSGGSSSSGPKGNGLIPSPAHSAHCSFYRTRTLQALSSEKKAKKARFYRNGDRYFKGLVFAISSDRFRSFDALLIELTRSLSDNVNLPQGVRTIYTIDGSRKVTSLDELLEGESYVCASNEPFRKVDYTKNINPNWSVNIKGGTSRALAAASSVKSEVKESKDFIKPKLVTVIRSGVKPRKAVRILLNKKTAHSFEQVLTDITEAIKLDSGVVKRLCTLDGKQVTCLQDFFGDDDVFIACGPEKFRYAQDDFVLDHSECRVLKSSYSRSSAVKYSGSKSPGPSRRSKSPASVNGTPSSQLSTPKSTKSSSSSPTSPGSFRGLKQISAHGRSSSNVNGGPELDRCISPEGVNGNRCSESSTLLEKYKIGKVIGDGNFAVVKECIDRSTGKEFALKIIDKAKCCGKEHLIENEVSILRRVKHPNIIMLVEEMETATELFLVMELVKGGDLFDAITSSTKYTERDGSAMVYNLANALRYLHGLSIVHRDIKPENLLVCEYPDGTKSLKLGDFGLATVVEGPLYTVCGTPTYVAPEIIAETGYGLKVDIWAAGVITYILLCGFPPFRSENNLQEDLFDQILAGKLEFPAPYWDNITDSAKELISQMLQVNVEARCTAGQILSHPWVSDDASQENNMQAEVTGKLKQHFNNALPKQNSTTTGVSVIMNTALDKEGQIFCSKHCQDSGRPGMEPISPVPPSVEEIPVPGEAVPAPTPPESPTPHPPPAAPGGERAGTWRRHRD
Chain of STK24 (human) (Q9Y6E0 whole entry, looked up): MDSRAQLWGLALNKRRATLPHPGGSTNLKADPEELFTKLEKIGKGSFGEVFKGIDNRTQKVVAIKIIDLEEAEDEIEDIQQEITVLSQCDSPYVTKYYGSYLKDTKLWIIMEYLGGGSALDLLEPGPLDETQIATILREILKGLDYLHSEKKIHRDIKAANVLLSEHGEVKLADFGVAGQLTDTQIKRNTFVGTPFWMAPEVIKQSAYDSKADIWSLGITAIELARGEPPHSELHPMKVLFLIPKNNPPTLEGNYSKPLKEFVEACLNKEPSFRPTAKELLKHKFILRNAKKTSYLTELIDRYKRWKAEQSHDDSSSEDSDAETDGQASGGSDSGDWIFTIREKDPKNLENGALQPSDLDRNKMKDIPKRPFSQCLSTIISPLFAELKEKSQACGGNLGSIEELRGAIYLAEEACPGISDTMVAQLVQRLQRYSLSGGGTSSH

In the case of CC(C)n1nc(-c2cc3cc(O)ccc3[nH]2)c2c(N)ncnc21, the kinase still bound, per cent of control (CAMK2B (human)) is reported as 63%, the kinase still bound, per cent of control (CAMK2D (human)) is reported as 69% and the kinase still bound, per cent of control (CAMK2G (human)) is reported as 56%. It also gave a kinase still bound, per cent of control (CAMK4 (human)) of 100%, a kinase still bound, per cent of control (CAMKK1 (human)) of 49% and a kinase still bound, per cent of control (CDC42BPA (human)) of 74%. The per cent of control (CDKL1 (human)) was 100%, the kinase still bound, per cent of control (CHUK (human)) was 41% and the kinase still bound, per cent of control (DCLK2 (human)) was 100%. The kinase still bound, per cent of control [1] was 16%, the kinase still bound, per cent of control (HCK (human)) was 2.5% and the per cent of control (IGF1R (human)) was 100%. The kinase still bound, per cent of control (IKBKE (human)) was 70%, the kinase still bound, per cent of control (LIMK2 (human)) was 77% and the kinase still bound, per cent of control (MAP2K7 (human)) was 75%. For the same compound, the kinase still bound, per cent of control (MAP3K2 (human)) was 4.8%, the kinase still bound, per cent of control (MAP3K7 (human)) was 22% and the kinase still bound, per cent of control (MAP4K3 (human)) was 52%. For the same compound, the kinase still bound, per cent of control (NEK5 (human)) was 86%, the kinase still bound, per cent of control (PDGFRA (human)) was 2.2% and the kinase still bound, per cent of control (PKN1 (human)) was 85%. The kinase still bound, per cent of control (PKN3 (M.tuberculosis)) was 24%, the kinase still bound, per cent of control (PLK2 (human)) was 13% and the kinase still bound, per cent of control (PRKAA2 (human)) was 67%. For the same compound, the kinase still bound, per cent of control (PRKCQ (human)) was 58%, the kinase still bound, per cent of control (RPS6KA5 KD1 (human)) was 100% and the kinase still bound, per cent of control (SIK1 (human)) was 13%. The kinase still bound, per cent of control (SRMS (human)) was 61%, the kinase still bound, per cent of control (STK17A (human)) was 81% and the kinase still bound, per cent of control (STK24 (human)) was 67%. It also gave a kinase still bound, per cent of control (STK32C (human)) of 69%, a kinase still bound, per cent of control (TEC (human)) of 100% and a kinase still bound, per cent of control (TLK2 (human)) of 79%. For the same compound, the kinase still bound, per cent of control (TNIK (human)) was 2.4% and the kinase still bound, per cent of control (TNNI3K (human)) was 14%.
For COC(=O)Nc1ccc(-c2nc(N3CCOCC3)c3cnn(C4CCN(C(=O)OC)CC4)c3n2)cc1, the kinase still bound, per cent of control (CAMK1D (human)) was 85%, the kinase still bound, per cent of control (CAMK2B (human)) was 100% and the kinase still bound, per cent of control (CAMK2D (human)) was 100%. It also gave a kinase still bound, per cent of control (CAMK2G (human)) of 93%, a kinase still bound, per cent of control (CAMK4 (human)) of 100% and a kinase still bound, per cent of control (CAMKK1 (human)) of 100%. It also gave a kinase still bound, per cent of control (CASK (human)) of 100%, a kinase still bound, per cent of control (CDC42BPA (human)) of 100% and a per cent of control (CDKL1 (human)) of 91%. The kinase still bound, per cent of control (CHUK (human)) was 63%, the kinase still bound, per cent of control (CSNK1G1 (human)) was 100% and the kinase still bound, per cent of control (DCLK2 (human)) was 95%. For the same compound, the kinase still bound, per cent of control [2] was 100%, the kinase still bound, per cent of control [3] was 100% and the kinase still bound, per cent of control [1] was 76%. The kinase still bound, per cent of control (HCK (human)) was 100%, the per cent of control (IGF1R (human)) was 98% and the kinase still bound, per cent of control (IKBKE (human)) was 81%. For the same compound, the kinase still bound, per cent of control (LIMK2 (human)) was 94%, the kinase still bound, per cent of control (MAP2K7 (human)) was 100% and the kinase still bound, per cent of control (MAP3K2 (human)) was 89%. The kinase still bound, per cent of control (MAP3K7 (human)) was 70%, the kinase still bound, per cent of control (MAP4K3 (human)) was 74% and the kinase still bound, per cent of control (NEK5 (human)) was 100%. The kinase still bound, per cent of control (PDGFRA (human)) was 92%, the kinase still bound, per cent of control (PKN1 (human)) was 97% and the kinase still bound, per cent of control (PKN3 (M.tuberculosis)) was 73%. It also gave a kinase still bound, per cent of control (PLK2 (human)) of 96%, a kinase still bound, per cent of control (PRKAA2 (human)) of 100% and a kinase still bound, per cent of control (PRKCQ (human)) of 99%. For the same compound, the kinase still bound, per cent of control (PRKG2 (human)) was 86%, the kinase still bound, per cent of control (RPS6KA5 KD1 (human)) was 100% and the kinase still bound, per cent of control (SIK1 (human)) was 100%. The kinase still bound, per cent of control (SRMS (human)) was 78%, the kinase still bound, per cent of control (STK17A (human)) was 91% and the kinase still bound, per cent of control (STK24 (human)) was 100%. It also gave a kinase still bound, per cent of control (STK32C (human)) of 89%, a kinase still bound, per cent of control (TEC (human)) of 96% and a kinase still bound, per cent of control (TLK2 (human)) of 96%. For the same compound, the kinase still bound, per cent of control (TNIK (human)) was 95% and the kinase still bound, per cent of control (TNNI3K (human)) was 100%.
Compound CCC(=O)N1CCN(c2ccc(-n3c(=O)ccc4cnc5ccc(-c6cnc7ccccc7c6)cc5c43)cc2C(F)(F)F)CC1 has a kinase still bound, per cent of control (CAMK1D (human)) of 88%, a kinase still bound, per cent of control (CAMK2B (human)) of 100% and a kinase still bound, per cent of control (CAMK2D (human)) of 72%. The kinase still bound, per cent of control (CAMK2G (human)) was 79%, the kinase still bound, per cent of control (CAMK4 (human)) was 90% and the kinase still bound, per cent of control (CAMKK1 (human)) was 80%. For the same compound, the kinase still bound, per cent of control (CASK (human)) was 100%, the kinase still bound, per cent of control (CDC42BPA (human)) was 0.65% and the per cent of control (CDKL1 (human)) was 100%. The kinase still bound, per cent of control (CHUK (human)) was 41%, the kinase still bound, per cent of control (CSNK1G1 (human)) was 100% and the kinase still bound, per cent of control (DCLK2 (human)) was 100%. For the same compound, the kinase still bound, per cent of control [2] was 100%, the kinase still bound, per cent of control [3] was 100% and the kinase still bound, per cent of control (HCK (human)) was 77%. For the same compound, the per cent of control (IGF1R (human)) was 94%, the kinase still bound, per cent of control (IKBKE (human)) was 87% and the kinase still bound, per cent of control (LIMK2 (human)) was 4.8%. The kinase still bound, per cent of control (MAP2K7 (human)) was 100%, the kinase still bound, per cent of control (MAP3K2 (human)) was 62% and the kinase still bound, per cent of control (MAP3K7 (human)) was 47%. It also gave a kinase still bound, per cent of control (MAP4K3 (human)) of 1.9%, a kinase still bound, per cent of control (NEK5 (human)) of 5.8% and a kinase still bound, per cent of control (PDGFRA (human)) of 63%. The kinase still bound, per cent of control (PKN1 (human)) was 92%, the kinase still bound, per cent of control (PKN3 (M.tuberculosis)) was 64% and the kinase still bound, per cent of control (PLK2 (human)) was 85%. It also gave a kinase still bound, per cent of control (PRKAA2 (human)) of 74%, a kinase still bound, per cent of control (PRKCQ (human)) of 91% and a kinase still bound, per cent of control (PRKG2 (human)) of 78%. For the same compound, the kinase still bound, per cent of control (RPS6KA5 KD1 (human)) was 100%, the kinase still bound, per cent of control (SIK1 (human)) was 80% and the kinase still bound, per cent of control (SRMS (human)) was 92%. For the same compound, the kinase still bound, per cent of control (STK17A (human)) was 93%, the kinase still bound, per cent of control (STK24 (human)) was 100% and the kinase still bound, per cent of control (STK32C (human)) was 100%. The kinase still bound, per cent of control (TEC (human)) was 99%, the kinase still bound, per cent of control (TLK2 (human)) was 100% and the kinase still bound, per cent of control (TNIK (human)) was 39%. It also gave a kinase still bound, per cent of control (TNNI3K (human)) of 66%.
